Data on one substance can be found in patent US20200247855A1, “THERAPY AND DIAGNOSTICS” (OXFORD UNIVERSITY INNOVATION LIMITED, priority 2017, published 2020).

No end group written: not given here.

One test deals with T1, CCL8_HUMAN (Homo sapiens, UniProt P80075).
T1 sequence (P80075 24-99): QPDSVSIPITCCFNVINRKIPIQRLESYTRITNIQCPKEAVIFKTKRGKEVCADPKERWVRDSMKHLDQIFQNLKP
Kind of test: Neutralisation of chemokine induced THP-1 cell migration. It is filed as cell-based. As for the experimental part: Table 1. Tick CKBPs described in PCT/GB2017/050563 and [17]. Tick peptide sequences isolated in yeast surface display fluorescent-activated cell sorting (FACS) screens using a labelled chemokine. Identity with Evasin-1, 4 or 3 was calculated using BLAST. Abbreviations: IXORI—Ixodes ricinus, RHISA—Rhipicephalus sanguineus, AMBMA—Amblyomma maculatum, AMBPA—Amblyomma parvum, AMBTR—Amblyomma triste, AMBAM—Amblyomma americanum, AMBCA—Amblyomma cajennense, RHIPU—Rhipicephalus pulchellus. Table 2A-C. Binding characteristics of tick CKBPs previously disclosed (PCT/GB2017/050563 and [17]). All members of the human chemokine family[164] are listed in column 1. Binding to human chemokines was determined for 14 tick CKBPs using biolayer interferometry (BLI) with calculated Kd shown as Molar (Moles/Litre). Binding data for 17 other novel tick CKBPs was assayed using yeast surface display[17,166],with positive binding results shown as “YES”. For biolayer interferometry, His-tagged purified tick CKBP was bound to a Ni-NINTA sensor on an OctetRed® 384 system, and then binding to each chemokine listed (with the exception of CCL25, CCL26, CXCL16, CXCL17, CXCL4L1, XCL2) was assayed in a cross-binding screen at a chemokine concentration of 300 nM as described. For those chemokines showing binding to a tick CKBP in the cross-binding screen, binding assays were repeated using different doses of chemokine. Association, equilibrium and dissociation data were analysed using Octet software to create corresponding fitted curves, and used to calculate Kd. For yeast surface display, (YSD) background fluorescence was controlled for by using either an empty vector or by omitting the chemokine (i.e. using streptavidin-Alexa647 alone). An arbitrary threshold of >3 fold over background mean fluorescence intensity was chosen to describe confirmed re-tests. Where binding was detected data are indicated as “YES”. […] For yeast surface display data, empty cells represent chemokines that were not tested. Binding data published in relation to previously described tick CKBPs (Evasins-1, 4 and 3) is also shown for comparison in each of FIGS. 2A-C, with the relevant data obtained from publications: [20-22,32]. Table 3: Neutralisation of human chemokines by tick CKBPs previously disclosed (PCT/GB2017/050563 and [17]). Neutralising activity was determined using a quantitative THP1 cell migration assay in a 96-well Boyden chamber with chemokine in the bottom chamber as described. Cells migrating through to the bottom chamber at 4 hours were counted using flow cytometry in a 96 well plate format. IC50 for neutralisation was determined at the chemokine EC80 dose as determined using a range of tick CKBP concentrations. Data was analysed using GraphPad Prism to determine IC50, which is shown as Molar (Moles/Litre). Empty cells represent experiments not done. Table 4—Other previously described tick CKBPs. Tick CKBPs that were also described in PCT/GB2017/050563 and Singh et al. are indicated in “Notes”. Table 5.—Novel tick CKBPs of the invention. Table 6. […] The peptide sequence prefix indicates the identity, and suffix indicate the tick species as follows: AMBCA, Amblyomma cajennense and IXORI, Ixodes ricinus. […] Individual yeast clones recovered from the library were re-tested using a FACS (fluorescence activated cell sorting), experiment. The binding of the peptide to the chemokine was assayed by measuring the percent (%), of yeast cells expressing the given peptide that exceeded a background threshold set by measuring the fluorescence of the yeast library pool treated with streptavidin-[…] alone. When more than one independent yeast clone was isolated for a given peptide-chemokine combination, the mean percent shift was calculated and reported in column 3.

The target in the next test is T2, human CCL8-647 (Homo sapiens, UniProt P80075).
T2 construct: purchased Almac (UK)
T2 sequence (P80075 24-99): T1 sequence (P80075 24-99)
Nature of the test: Fluorescent chemokine binding to THP-1 cells (flow cytometry). The format is cell-based. To be noted: FIG. 16 A, B. How it is done: P672_PEP_SCRAM (C-terminally amidated)=[…] FIG. 16(A). […] 60 μM (+) P672_PEP or P672_PEP_SCRAM were incubated with CCL8-647 (2.5 nM) for half an hour at 37° C. prior to adding to THP-1 cells and incubating everything together for a further half an hour at 37° C. Cells were then analysed using fluorescence assisted cell sorting (10,000 cells analysed) and MFI recorded. Experiment carried out in triplicate where each data point is the average of one experiment carried out in technical triplicate. Mean with SEM shown and statistical significance was determined using one-way ANOVA with Sidak's correction for multiple comparisons using Graph Pad Prism 6. ****=P<0.00005, ns=not significant.
Data are shown as mean of two technical replicates. […] Curves were fitted with 4 parameters to estimate IC50.
Fluorescent chemokine (conjugated to AlexaFluor-647) binding to THP-1 cells results in an increase in the cellular fluorescence intensity, which is quantitatively measured using flow cytometry.
Fluorescent Chemokine/Receptor Blocking Assay CCL8-647 (2.5 nM, final) or […] (1.2 nM, final) was incubated for 30 minutes with varying doses of peptide (0-100 μM, final concentration) in 50 μL assay buffer (RPMI-1640+L-glutamine (4 mM)+10% heat treated fetal bovine serum+0.2% DMSO) at 37° C. […]
(In general: Flow cytometry measures light scatter and fluorescence of single cells or particles in a stream.)

Take EDEDYEDFFKPVTAYF-NH2 [BK1.1]: the IC50 at CCL8_HUMAN amounted to 0.51 µM. Further, the “Inhibition of CCL8-647 binding to THP-1 cells” value at human CCL8-647 is “could inhibit CCL8-647 binding to THP-1 cells”.

What is called IC50 is the midpoint of a concentration-inhibition curve.
